Results as given in ChEMBL document CHEMBL1201862, “PubChem BioAssay data set” (2004).
The source made the active and inactive calls.

Tests used:
[1] = target: T1, G-protein coupled receptor 35 (Homo sapiens, UniProt Q9HC97); test: SAR analysis of Agonists of the GPR35 Receptor using an Image-Based Assay - Set 4. [Related pubchem assays (depositor defined):AID2013, AID2026]; assay type: functional
Cannabinoid receptor 1 [2] = target: T2, Cannabinoid receptor 1 (Homo sapiens, UniProt P21554); test: SAR analysis of agonists of the Cannabinoid Receptor 1 using an Image-Based Assay - Set 4. [Related pubchem assays (depositor defined):AID2013, AID2026]; assay type: functional
[3] = target: T1, G-protein coupled receptor 35; test: SAR analysis of Antagonists of the GPR35 Receptor using an Image-Based Assay - Set 6. [Related pubchem assays (depositor defined):AID2013, AID2026]; assay type: functional
Cannabinoid receptor 1 [4] = target: T2, Cannabinoid receptor 1; test: SAR analysis of antagonists of the Cannabinoid Receptor 1 using an Image-Based Assay - Set 4. [Related pubchem assays (depositor defined):AID2013, AID2026]; assay type: functional
[5] = target: G-protein coupled receptor 55 (Homo sapiens, UniProt Q9Y2T6); test: SAR Analysis of Selective Antagonists of GPR55 using an Image-Based Assay - Set 4. [Related pubchem assays (depositor defined):AID2013, AID2026]; assay type: functional;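 note: antagonism of response to 5 µM lysophosphatidylinositol agonist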
Cannabinoid receptor 2 [6] = target: T3, Cannabinoid receptor 2 (Homo sapiens, UniProt P34972); test: SAR analysis of antagonists of the Cannabinoid Receptor 2 using an Image-Based Assay - Set 3. [Related pubchem assays (depositor defined):AID2013, AID2026]; assay type: functional
Cannabinoid receptor 2 [7] = target: T3, Cannabinoid receptor 2; test: SAR analysis of agonists of the Cannabinoid Receptor 2 using an Image-Based Assay - Set 3. [Related pubchem assays (depositor defined):AID2013, AID2026]; assay type: functional
[8] = target: E3 ubiquitin-protein ligase XIAP (Homo sapiens, UniProt P98170); test: Counter Screen using XIAP-Bir3 for Chemical Antagonists of Bir1/2 domains of IAP-family anti-apoptotic proteins. [Related pubchem assays (depositor defined):AID1018, AID1449, AID1514, AID1638, AID1749, AID1750, AID488957, AID488963]
[9] = compound autofluorescence in calcium buffer – biochemical, fluorescence, no RTF in test wells, artefact control for cardiac thin filament activator project, dose response (AID 504697)
Troponin, cardiac muscle = Troponin, cardiac muscle (Homo sapiens, UniProt P19429+P45379+P63316); test: Fluorescence-based biochemical high throughput dose response assay for activators of the calcium sensitivity of cardiac Regulated Thin Filaments (RTF). [Related pubchem assays (depositor defined):AID493008, AID493018, AID504382, AID504383]; assay type: protein-complex assay
[10] = target: T4, Long-chain-fatty-acid--AMP ligase FadD28 (Mycobacterium tuberculosis, UniProt P9WQ59); test: Fluorescence polarization aasay to screen for inhibitors that compete for the binding of FadD28 to a bisubstrate Measured in Biochemical System Using Plate Reader - 2147-01_Inhibitor_Dose_CherryPick_Activity.; assay type: functional, Mycobacterium tuberculosis H37Rv
T4 sequence (P9WQ59 whole entry): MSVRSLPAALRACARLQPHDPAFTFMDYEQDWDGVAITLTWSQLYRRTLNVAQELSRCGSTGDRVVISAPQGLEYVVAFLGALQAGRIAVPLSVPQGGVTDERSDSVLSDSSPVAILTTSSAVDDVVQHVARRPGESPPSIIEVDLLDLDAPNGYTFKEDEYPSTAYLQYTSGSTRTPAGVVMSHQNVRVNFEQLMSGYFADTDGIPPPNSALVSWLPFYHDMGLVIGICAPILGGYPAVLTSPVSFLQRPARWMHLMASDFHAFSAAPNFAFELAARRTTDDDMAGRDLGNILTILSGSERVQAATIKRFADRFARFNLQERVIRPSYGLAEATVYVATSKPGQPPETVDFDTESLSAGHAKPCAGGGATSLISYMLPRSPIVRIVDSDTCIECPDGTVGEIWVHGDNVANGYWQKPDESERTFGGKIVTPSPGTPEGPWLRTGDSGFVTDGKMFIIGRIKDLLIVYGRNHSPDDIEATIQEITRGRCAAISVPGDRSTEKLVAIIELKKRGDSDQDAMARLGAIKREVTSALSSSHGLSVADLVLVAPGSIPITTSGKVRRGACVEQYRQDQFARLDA

[11] = target: Transitional endoplasmic reticulum ATPase (Homo sapiens, UniProt P55072, C522A); test: C522A mutant p97 ATPase inhibitors, dose response, counter-screen for p97 inhibitor project, biochemical, luminescence (AID 1544)
[12] = target: Transitional endoplasmic reticulum ATPase (Homo sapiens, UniProt P55072); test: p97 ATPase inhibitors, dose response, biochemical (AID 1534)
[13] = Luminescence Cell-Based Dose Retest to Confirm Inhibitors of Cancer Stem Cells. [Related pubchem assays (depositor defined):AID2717, AID2721]; assay type: functional; conditions: Homo sapiens
[14] = target: DNA damage-inducible transcript 3 protein (Mus musculus, UniProt P35639); assay type: functional, Cricetulus griseus
X-box-binding protein 1 = X-box-binding protein 1 (Homo sapiens, UniProt P17861); assay type: functional, Cricetulus griseus;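 note: confirmatory dose-response counter-screen serving a CHOP assay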
X-box-binding protein 1, sequence (P17861 whole entry): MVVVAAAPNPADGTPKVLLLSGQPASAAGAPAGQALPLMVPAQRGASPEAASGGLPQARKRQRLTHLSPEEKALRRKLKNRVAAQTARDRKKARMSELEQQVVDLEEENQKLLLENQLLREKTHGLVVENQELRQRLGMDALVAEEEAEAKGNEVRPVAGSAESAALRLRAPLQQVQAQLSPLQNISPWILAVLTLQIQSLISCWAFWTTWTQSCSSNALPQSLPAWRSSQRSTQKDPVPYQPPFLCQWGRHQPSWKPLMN

T3 sequence (P34972 whole entry): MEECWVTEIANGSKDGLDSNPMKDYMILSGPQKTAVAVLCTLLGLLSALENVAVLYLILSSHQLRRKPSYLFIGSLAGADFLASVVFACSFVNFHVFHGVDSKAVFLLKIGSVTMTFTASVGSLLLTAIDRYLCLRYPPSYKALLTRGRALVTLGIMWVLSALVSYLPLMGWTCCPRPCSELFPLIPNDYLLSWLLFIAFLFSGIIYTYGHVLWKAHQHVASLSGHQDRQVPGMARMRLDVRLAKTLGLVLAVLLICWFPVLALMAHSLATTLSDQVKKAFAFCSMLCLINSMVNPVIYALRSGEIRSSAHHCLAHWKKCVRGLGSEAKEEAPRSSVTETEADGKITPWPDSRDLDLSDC
T2 sequence (P21554 whole entry): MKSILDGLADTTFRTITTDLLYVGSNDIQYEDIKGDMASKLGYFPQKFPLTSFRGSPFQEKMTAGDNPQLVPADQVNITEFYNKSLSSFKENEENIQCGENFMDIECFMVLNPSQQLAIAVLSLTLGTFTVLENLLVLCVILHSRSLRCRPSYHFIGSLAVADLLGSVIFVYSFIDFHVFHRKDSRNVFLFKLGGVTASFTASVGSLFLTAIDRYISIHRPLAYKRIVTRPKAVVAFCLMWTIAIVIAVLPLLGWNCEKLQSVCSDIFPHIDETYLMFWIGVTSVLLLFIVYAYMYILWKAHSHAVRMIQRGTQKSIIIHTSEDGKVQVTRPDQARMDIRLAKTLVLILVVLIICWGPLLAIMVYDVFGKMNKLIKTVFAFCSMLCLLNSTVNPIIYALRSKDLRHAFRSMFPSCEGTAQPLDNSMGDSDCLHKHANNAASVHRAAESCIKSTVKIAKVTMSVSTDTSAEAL
T1 sequence (Q9HC97 whole entry): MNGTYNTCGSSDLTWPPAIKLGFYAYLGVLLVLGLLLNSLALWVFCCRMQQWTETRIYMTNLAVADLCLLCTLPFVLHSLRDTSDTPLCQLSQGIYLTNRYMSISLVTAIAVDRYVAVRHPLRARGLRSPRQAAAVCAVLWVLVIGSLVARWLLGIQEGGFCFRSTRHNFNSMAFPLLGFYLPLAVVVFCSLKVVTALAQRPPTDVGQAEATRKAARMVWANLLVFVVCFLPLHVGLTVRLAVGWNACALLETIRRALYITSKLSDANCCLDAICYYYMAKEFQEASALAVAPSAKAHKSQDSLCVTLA
Transitional endoplasmic reticulum ATPase (Homo sapiens, UniProt P55072, C522A), sequence (P55072 2-806 C522A limits assumed): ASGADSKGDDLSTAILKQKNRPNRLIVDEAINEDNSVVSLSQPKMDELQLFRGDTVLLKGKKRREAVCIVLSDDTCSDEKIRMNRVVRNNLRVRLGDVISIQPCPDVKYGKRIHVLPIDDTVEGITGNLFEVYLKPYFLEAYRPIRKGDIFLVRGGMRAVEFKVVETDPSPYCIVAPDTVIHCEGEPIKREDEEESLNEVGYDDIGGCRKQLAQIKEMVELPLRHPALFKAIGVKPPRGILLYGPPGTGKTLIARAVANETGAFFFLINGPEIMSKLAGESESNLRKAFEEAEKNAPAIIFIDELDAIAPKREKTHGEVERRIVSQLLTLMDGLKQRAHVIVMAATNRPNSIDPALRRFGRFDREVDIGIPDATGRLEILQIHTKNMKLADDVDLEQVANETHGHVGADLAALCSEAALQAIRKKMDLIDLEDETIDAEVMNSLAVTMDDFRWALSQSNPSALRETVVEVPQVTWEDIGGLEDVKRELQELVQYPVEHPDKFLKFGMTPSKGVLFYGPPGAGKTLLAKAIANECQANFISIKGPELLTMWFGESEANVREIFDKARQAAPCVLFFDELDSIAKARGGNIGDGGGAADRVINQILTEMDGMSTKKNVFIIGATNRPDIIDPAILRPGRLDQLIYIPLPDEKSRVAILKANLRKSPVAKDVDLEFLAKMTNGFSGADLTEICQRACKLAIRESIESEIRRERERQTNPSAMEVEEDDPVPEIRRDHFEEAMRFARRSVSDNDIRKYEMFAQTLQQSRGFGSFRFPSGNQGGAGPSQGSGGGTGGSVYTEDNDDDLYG
E3 ubiquitin-protein ligase XIAP, sequence (P98170 whole entry): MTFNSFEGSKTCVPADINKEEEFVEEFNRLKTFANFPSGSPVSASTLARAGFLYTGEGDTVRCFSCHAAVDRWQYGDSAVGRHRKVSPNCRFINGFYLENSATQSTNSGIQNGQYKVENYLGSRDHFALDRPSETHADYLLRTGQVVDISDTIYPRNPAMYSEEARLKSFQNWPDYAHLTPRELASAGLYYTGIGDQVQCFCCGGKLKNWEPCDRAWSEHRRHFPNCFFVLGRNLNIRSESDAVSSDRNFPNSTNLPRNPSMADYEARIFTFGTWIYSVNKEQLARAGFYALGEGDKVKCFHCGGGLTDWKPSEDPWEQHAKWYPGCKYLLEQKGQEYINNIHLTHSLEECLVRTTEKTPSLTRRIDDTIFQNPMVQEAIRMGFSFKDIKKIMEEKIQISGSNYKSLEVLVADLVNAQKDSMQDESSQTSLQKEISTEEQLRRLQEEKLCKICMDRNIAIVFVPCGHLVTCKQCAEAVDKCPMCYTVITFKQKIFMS
DNA damage-inducible transcript 3 protein, sequence (P35639 whole entry): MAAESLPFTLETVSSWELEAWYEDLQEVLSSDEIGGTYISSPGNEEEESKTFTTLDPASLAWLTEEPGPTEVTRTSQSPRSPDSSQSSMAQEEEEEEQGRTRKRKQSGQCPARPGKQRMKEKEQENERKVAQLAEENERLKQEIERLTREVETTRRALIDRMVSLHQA
Transitional endoplasmic reticulum ATPase (Homo sapiens, UniProt P55072), sequence (P55072 whole entry): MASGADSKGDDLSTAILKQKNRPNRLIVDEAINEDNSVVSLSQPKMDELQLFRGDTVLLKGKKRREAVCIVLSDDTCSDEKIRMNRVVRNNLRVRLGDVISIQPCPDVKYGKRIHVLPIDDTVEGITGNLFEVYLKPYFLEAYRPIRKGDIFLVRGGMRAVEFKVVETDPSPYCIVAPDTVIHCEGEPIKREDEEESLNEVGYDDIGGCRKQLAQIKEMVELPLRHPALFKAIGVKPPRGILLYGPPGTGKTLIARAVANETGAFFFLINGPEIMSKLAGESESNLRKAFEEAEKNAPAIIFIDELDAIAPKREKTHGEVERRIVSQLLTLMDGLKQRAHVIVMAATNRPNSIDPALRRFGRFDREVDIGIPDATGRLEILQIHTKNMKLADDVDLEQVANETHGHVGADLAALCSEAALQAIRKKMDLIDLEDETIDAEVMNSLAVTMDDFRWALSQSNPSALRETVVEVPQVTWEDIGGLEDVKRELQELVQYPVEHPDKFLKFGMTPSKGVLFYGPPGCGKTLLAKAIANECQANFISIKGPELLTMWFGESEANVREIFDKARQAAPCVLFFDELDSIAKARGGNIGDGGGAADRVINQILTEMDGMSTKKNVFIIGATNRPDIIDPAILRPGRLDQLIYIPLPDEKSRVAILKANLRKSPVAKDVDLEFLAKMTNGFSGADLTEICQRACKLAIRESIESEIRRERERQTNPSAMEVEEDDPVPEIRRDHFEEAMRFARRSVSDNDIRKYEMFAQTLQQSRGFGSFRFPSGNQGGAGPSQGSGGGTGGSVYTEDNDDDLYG
G-protein coupled receptor 55, sequence (Q9Y2T6 whole entry): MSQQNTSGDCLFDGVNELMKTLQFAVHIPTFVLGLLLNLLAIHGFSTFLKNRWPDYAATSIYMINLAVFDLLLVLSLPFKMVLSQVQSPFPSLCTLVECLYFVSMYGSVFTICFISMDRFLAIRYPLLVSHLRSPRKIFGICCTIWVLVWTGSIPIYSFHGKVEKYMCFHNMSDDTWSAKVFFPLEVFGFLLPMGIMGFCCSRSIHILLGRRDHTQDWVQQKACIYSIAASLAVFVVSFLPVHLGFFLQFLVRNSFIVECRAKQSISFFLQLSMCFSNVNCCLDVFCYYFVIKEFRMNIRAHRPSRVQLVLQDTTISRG

With `COc1ccc(-c2nnc(C)c3nn(-c4ccc(C)cc4)cc23)cc1` the EC50 [1] was > 32 µM (inactive), the EC50 (Cannabinoid receptor 1 [2]) was > 32 µM (inactive) and the IC50 [3] was > 32 µM (inactive). For the same compound, the IC50 (Cannabinoid receptor 1 [4]) was 3.56 µM (active), the IC50 [5] was > 32 µM (inactive) and the IC50 (Cannabinoid receptor 2 [6]) was > 15.6 µM (inactive). The EC50 (Cannabinoid receptor 2 [7]) was > 32 µM (inactive).
In the case of `CCN1C(=O)C(=CNc2ccc(N3CCOCC3)cc2)C(=O)N(CC)C1=S`, the IC50 [8] is reported as > 20 µM (inactive), the EC50 [9] is reported as > 7.94 µM (active) and the EC50 (Troponin, cardiac muscle) is reported as 5.15 µM (active). The AC50 [10] was > 100 µM (inactive).
In the case of `Cc1cc(Nc2ccccc2)nc(-c2ccccc2O)n1`, the IC50 [11] is reported as > 50 µM (not active), the IC50 [12] is reported as > 50 µM (not active) and the AC50 [13] is reported as 5.64 µM (active). For the same compound, the “Absolute IC50 (CHOP)” value [14] was 10 µM and the “Absolute IC50 (XBP1)” value (X-box-binding protein 1) was less than 10 µM.
